Experimental data as given in ChEMBL document CHEMBL5143590, “Dihydropyrimidinone imidazoles as unique structural antibacterial agents for drug-resistant gram-negative pathogens” (Eur J Med Chem, 2022).
Values after ≈ are worked out from the molar mass of the structure shown.

Legend:
Type in all cases: functional
Staphylococcus aureus [1] = assay: Antibacterial activity against Staphylococcus aureus 29213 assessed as inhibition of bacterial growth by two fold serial dilution method
Klebsiella pneumoniae = assay: Antibacterial activity against Klebsiella pneumoniae assessed as inhibition of bacterial growth by two fold serial dilution method
Staphylococcus aureus [2] = assay: Antibacterial activity against Staphylococcus aureus assessed as inhibition of bacterial growth by two fold serial dilution method
Escherichia coli [3] = assay: Antibacterial activity against Escherichia coli assessed as inhibition of bacterial growth by two fold serial dilution method
Acinetobacter baumannii = assay: Antibacterial activity against Acinetobacter baumannii assessed as inhibition of bacterial growth by two fold serial dilution method
Staphylococcus aureus [4] = assay: Antibacterial activity against Staphylococcus aureus 25923 assessed as inhibition of bacterial growth by two fold serial dilution method
Pseudomonas aeruginosa [5] = assay: Antibacterial activity against Pseudomonas aeruginosa 27853 assessed as inhibition of bacterial growth by two fold serial dilution method
Escherichia coli [6] = assay: Antibacterial activity against Escherichia coli 25922 assessed as inhibition of bacterial growth by two fold serial dilution method
Pseudomonas aeruginosa [7] = assay: Antibacterial activity against Pseudomonas aeruginosa assessed as inhibition of bacterial growth by two fold serial dilution method
Staphylococcus aureus [8] = assay: Antibacterial activity against methicillin-resistant Staphylococcus aureus N315 assessed as inhibition of bacterial growth by two fold serial dilution method
Enterococcus faecalis = assay: Antibacterial activity against Enterococcus faecalis assessed as inhibition of bacterial growth by two fold serial dilution method

SMILES	MIC (Staphylococcus aureus [1]) [µg/mL]	MIC (Klebsiella pneumoniae) [µg/mL]	MIC (Staphylococcus aureus [2]) [µg/mL]	MIC (Escherichia coli [3]) [µg/mL]	MIC (Acinetobacter baumannii) [µg/mL]	MIC (Staphylococcus aureus [4]) [µg/mL]	MIC (Pseudomonas aeruginosa [5]) [µg/mL]	MIC (Escherichia coli [6]) [µg/mL]	MIC (Pseudomonas aeruginosa [7]) [µg/mL]	MIC (Staphylococcus aureus [8]) [µg/mL]	MIC (Enterococcus faecalis) [µg/mL]
CCCCc1nc(Cl)c(C2NC(=O)NC(C)=C2C(=O)OCC)n1Cc1cccc(Cl)c1 (centres undefined)	64 (≈ 138 µM)	32 (≈ 68.8 µM)	64 (≈ 138 µM)	64 (≈ 138 µM)	32 (≈ 68.8 µM)	32 (≈ 68.8 µM)	64 (≈ 138 µM)	32 (≈ 68.8 µM)	128 (≈ 275 µM)	64 (≈ 138 µM)	64 (≈ 138 µM)
CCCCc1nc(Cl)c(C2NC(=O)NC(CNS(=O)(=O)c3ccc(N)cc3)=C2C(=O)OCC)[nH]1 (centres undefined)	256 (≈ 501 µM)	256 (≈ 501 µM)	128 (≈ 250 µM)	256 (≈ 501 µM)	128 (≈ 250 µM)	256 (≈ 501 µM)	256 (≈ 501 µM)	256 (≈ 501 µM)	256 (≈ 501 µM)	256 (≈ 501 µM)	256 (≈ 501 µM)
CCCCc1nc(Cl)c(C2NC(=O)NC(C)=C2C(=O)OCC)n1S(=O)(=O)c1ccccc1 (centres undefined)	256 (≈ 532 µM)	128 (≈ 266 µM)	64 (≈ 133 µM)	64 (≈ 133 µM)	64 (≈ 133 µM)	128 (≈ 266 µM)	64 (≈ 133 µM)	128 (≈ 266 µM)	64 (≈ 133 µM)	128 (≈ 266 µM)	64 (≈ 133 µM)
C#CCn1c(CCCC)nc(Cl)c1C1NC(=O)NC(C)=C1C(=O)OCC (centres undefined)	64 (≈ 169 µM)	32 (≈ 84.5 µM)	64 (≈ 169 µM)	128 (≈ 338 µM)	64 (≈ 169 µM)	128 (≈ 338 µM)	128 (≈ 338 µM)	64 (≈ 169 µM)	64 (≈ 169 µM)	64 (≈ 169 µM)	64 (≈ 169 µM)
CCCCc1nc(Cl)c(C2NC(=O)NC(C)=C2C(=O)OCC)n1S(=O)(=O)c1cccc(Br)c1 (centres undefined)	64 (≈ 114 µM)	16 (≈ 28.6 µM)	32 (≈ 57.2 µM)	32 (≈ 57.2 µM)	32 (≈ 57.2 µM)	64 (≈ 114 µM)	16 (≈ 28.6 µM)	32 (≈ 57.2 µM)	32 (≈ 57.2 µM)	32 (≈ 57.2 µM)	16 (≈ 28.6 µM)
CCCCc1nc(Cl)c(C2NC(=O)NC(C)=C2C(=O)OCC)n1Cc1ccccc1Cl (centres undefined)	128 (≈ 275 µM)	128 (≈ 275 µM)	32 (≈ 68.8 µM)	32 (≈ 68.8 µM)	32 (≈ 68.8 µM)	16 (≈ 34.4 µM)	32 (≈ 68.8 µM)	32 (≈ 68.8 µM)	64 (≈ 138 µM)	16 (≈ 34.4 µM)	32 (≈ 68.8 µM)
CCCCc1nc(Cl)c(C2NC(=O)NC(C)=C2C(=O)OCC)n1CCN1CCOCC1 (centres undefined)	128 (≈ 282 µM)	64 (≈ 141 µM)	32 (≈ 70.5 µM)	128 (≈ 282 µM)	128 (≈ 282 µM)	128 (≈ 282 µM)	256 (≈ 564 µM)	128 (≈ 282 µM)	256 (≈ 564 µM)	64 (≈ 141 µM)	128 (≈ 282 µM)
NC1CCN(c2c(F)cc3c(=O)c(C(=O)O)cn(C4CC4)c3c2Cl)C1 (centres undefined) [CLINAFLOXACIN]	0.5 (≈ 1.37 µM)	1 (≈ 2.73 µM)	0.5 (≈ 1.37 µM)	0.5 (≈ 1.37 µM)	2 (≈ 5.47 µM)	0.5 (≈ 1.37 µM)	1 (≈ 2.73 µM)	1 (≈ 2.73 µM)	1 (≈ 2.73 µM)	1 (≈ 2.73 µM)	0.5 (≈ 1.37 µM)
CCCCc1nc(Cl)c(C2NC(=O)NC(C)=C2C(=O)OCC)n1Cc1ccc(Cl)c(Cl)c1 (centres undefined)	64 (≈ 128 µM)	64 (≈ 128 µM)	32 (≈ 64 µM)	128 (≈ 256 µM)	128 (≈ 256 µM)	32 (≈ 64 µM)	64 (≈ 128 µM)	64 (≈ 128 µM)	128 (≈ 256 µM)	32 (≈ 64 µM)	64 (≈ 128 µM)
CCCCc1nc(Cl)c(C2NC(=O)NC(CN(c3nnc(C)s3)S(=O)(=O)c3ccc(N)cc3)=C2C(=O)OCC)[nH]1 (centres undefined)	128 (≈ 210 µM)	64 (≈ 105 µM)	128 (≈ 210 µM)	128 (≈ 210 µM)	128 (≈ 210 µM)	256 (≈ 420 µM)	64 (≈ 105 µM)	128 (≈ 210 µM)	64 (≈ 105 µM)	64 (≈ 105 µM)	8 (≈ 13.1 µM)
CCCCc1nc(Cl)c(C2NC(=O)NC(C)=C2C(=O)OCC)n1S(=O)(=O)c1ccc(C(C)(C)C)cc1 (centres undefined)	64 (≈ 119 µM)	128 (≈ 238 µM)	64 (≈ 119 µM)	64 (≈ 119 µM)	128 (≈ 238 µM)	32 (≈ 59.6 µM)	64 (≈ 119 µM)	64 (≈ 119 µM)	256 (≈ 477 µM)	64 (≈ 119 µM)	128 (≈ 238 µM)
CCCCc1nc(Cl)c(C2NC(=O)NC(C)=C2C(=O)OCC)n1Cc1ccc(Cl)cc1 (centres undefined)	64 (≈ 138 µM)	64 (≈ 138 µM)	64 (≈ 138 µM)	64 (≈ 138 µM)	32 (≈ 68.8 µM)	64 (≈ 138 µM)	64 (≈ 138 µM)	64 (≈ 138 µM)	128 (≈ 275 µM)	64 (≈ 138 µM)	64 (≈ 138 µM)
CCCCc1nc(Cl)c(C2NC(=O)NC(C)=C2C(=O)OCC)n1S(=O)(=O)c1ccc(C(F)(F)F)cc1 (centres undefined)	8 (≈ 14.6 µM)	64 (≈ 117 µM)	64 (≈ 117 µM)	32 (≈ 58.3 µM)	16 (≈ 29.1 µM)	32 (≈ 58.3 µM)	64 (≈ 117 µM)	64 (≈ 117 µM)	32 (≈ 58.3 µM)	8 (≈ 14.6 µM)	16 (≈ 29.1 µM)
CCCCc1nc(Cl)c(C2NC(=O)NC(C)=C2C(=O)OCC)n1CCF (centres undefined)	64 (≈ 165 µM)	128 (≈ 331 µM)	32 (≈ 82.7 µM)	32 (≈ 82.7 µM)	64 (≈ 165 µM)	64 (≈ 165 µM)	64 (≈ 165 µM)	128 (≈ 331 µM)	64 (≈ 165 µM)	128 (≈ 331 µM)	64 (≈ 165 µM)
